# Measurements: ChEMBL document CHEMBL1201862, “PubChem BioAssay data set” (2004)
# “And” between values parts separate entries of the source, which are not always exact repeats. Identical values can stand only once. The source made the active and inactive calls.
# What was measured:
# [1] = target: T1, Replicative DNA helicase DnaB (Mycobacterium tuberculosis, UniProt P9WMR3); test: DnaB intein splicing inhibitors, dose response, biochemical, cell-free fluorescence (AID 449749); assay type: functional
# T1 sequence (P9WMR3 whole entry): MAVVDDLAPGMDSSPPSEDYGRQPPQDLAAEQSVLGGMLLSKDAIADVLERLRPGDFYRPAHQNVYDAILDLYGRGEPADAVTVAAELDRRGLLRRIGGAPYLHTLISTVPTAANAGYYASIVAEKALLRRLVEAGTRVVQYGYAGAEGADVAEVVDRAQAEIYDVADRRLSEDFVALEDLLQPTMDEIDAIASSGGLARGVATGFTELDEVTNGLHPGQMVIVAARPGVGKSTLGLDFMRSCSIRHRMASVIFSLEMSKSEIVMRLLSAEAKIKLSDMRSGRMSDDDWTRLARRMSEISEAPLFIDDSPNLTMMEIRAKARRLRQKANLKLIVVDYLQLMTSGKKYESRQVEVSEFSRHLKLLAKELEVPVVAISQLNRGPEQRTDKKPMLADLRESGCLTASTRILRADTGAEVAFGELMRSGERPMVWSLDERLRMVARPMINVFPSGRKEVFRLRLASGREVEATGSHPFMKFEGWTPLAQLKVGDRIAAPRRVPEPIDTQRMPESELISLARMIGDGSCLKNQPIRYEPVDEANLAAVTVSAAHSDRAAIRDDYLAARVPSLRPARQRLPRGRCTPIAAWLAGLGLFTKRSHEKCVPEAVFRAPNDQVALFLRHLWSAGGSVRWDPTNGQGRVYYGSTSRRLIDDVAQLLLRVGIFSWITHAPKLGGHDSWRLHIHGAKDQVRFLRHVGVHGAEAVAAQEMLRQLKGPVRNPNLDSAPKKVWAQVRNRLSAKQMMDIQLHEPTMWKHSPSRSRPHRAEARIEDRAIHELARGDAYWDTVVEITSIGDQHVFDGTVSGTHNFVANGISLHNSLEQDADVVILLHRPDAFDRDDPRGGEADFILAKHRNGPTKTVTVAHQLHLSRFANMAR
# Protein RecA = target: T2, Protein RecA (Mycobacterium tuberculosis, UniProt P9WHJ3); test: Fluorescence Cell-Free Homogeneous Dose Retest to Identify Inhibitors of RecA-Intein Splicing Activity. [Related pubchem assays (depositor defined):AID2097, AID2223, AID489010, AID492950]; assay type: functional
# T2 sequence (P9WHJ3 whole entry): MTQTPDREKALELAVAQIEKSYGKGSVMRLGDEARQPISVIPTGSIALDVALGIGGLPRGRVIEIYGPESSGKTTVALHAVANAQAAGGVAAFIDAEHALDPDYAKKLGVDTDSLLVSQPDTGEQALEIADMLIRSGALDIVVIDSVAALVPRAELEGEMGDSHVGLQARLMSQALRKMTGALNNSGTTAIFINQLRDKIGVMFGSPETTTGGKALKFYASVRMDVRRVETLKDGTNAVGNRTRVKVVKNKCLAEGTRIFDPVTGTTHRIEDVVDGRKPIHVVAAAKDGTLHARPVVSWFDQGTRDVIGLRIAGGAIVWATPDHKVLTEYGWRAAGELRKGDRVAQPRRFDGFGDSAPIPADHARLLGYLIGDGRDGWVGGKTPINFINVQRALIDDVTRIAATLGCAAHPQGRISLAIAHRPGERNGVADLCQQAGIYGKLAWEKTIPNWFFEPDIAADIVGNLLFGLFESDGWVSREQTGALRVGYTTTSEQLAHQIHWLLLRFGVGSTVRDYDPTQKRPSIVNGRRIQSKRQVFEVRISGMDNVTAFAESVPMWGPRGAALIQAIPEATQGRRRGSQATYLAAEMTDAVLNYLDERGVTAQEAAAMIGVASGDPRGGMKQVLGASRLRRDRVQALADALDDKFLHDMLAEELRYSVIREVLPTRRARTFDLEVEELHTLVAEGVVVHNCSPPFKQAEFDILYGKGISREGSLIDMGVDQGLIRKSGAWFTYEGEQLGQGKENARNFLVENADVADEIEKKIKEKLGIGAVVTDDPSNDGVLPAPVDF
# Cytochrome P450 2C19 = Cytochrome P450 2C19 (Homo sapiens, UniProt P33261); test: Cytochrome panel assay with activity outcomes. Panel member name: p450-cyp2c19 Compounds with AC50 equal or less than 10 uM are considered active; assay type: functional
# Cytochrome P450 1A2 = target: T3, Cytochrome P450 1A2 (Homo sapiens, UniProt P05177);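 further: PubChem cytochrome P450 panel assay, CYP1A2 panel member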
# T3 sequence (P05177 whole entry): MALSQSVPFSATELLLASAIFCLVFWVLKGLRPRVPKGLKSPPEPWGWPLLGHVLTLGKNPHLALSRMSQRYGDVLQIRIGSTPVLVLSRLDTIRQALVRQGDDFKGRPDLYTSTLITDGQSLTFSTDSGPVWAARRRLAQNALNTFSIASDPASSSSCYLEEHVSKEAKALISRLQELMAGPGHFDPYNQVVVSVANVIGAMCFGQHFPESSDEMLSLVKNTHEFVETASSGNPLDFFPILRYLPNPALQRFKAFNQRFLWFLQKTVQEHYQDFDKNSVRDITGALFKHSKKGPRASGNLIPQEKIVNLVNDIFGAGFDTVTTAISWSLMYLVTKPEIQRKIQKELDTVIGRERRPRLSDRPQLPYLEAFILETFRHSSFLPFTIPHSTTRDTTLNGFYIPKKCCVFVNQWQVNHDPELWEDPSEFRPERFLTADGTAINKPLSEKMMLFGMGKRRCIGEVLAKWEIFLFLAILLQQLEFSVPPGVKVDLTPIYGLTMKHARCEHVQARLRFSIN
# [2] = Luminescence Cell-Based Dose Retest to Confirm Inhibitors of Cancer Stem Cells. [Related pubchem assays (depositor defined):AID2717, AID2721]; assay type: functional; details: Homo sapiens
# Cytochrome P450 3A4 = Cytochrome P450 3A4 (Homo sapiens, UniProt P08684);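 further: CYP3A4 tested as one member of a cytochrome P450 panel screen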
# [3] = tested on: Streptococcus sp. 'group A'; test: growth inhibition of control SK(-) GAS strain, dose response, counter-screen for streptokinase expression inhibitor project, luminescence, kanamycin, BacTiterGlo, confirmation (AID 1900); assay type: functional, organism-based
# Streptococcus = test: Group A Streptococcus viability loss, dose response, counter-screen for streptokinase expression inhibitor project, luminescence, BacTiterGlo (AID 1915); assay type: functional, organism-based;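 further: potency for reduction of bacterial viability or growth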
# Sequence of Cytochrome P450 3A4 (P08684 whole entry): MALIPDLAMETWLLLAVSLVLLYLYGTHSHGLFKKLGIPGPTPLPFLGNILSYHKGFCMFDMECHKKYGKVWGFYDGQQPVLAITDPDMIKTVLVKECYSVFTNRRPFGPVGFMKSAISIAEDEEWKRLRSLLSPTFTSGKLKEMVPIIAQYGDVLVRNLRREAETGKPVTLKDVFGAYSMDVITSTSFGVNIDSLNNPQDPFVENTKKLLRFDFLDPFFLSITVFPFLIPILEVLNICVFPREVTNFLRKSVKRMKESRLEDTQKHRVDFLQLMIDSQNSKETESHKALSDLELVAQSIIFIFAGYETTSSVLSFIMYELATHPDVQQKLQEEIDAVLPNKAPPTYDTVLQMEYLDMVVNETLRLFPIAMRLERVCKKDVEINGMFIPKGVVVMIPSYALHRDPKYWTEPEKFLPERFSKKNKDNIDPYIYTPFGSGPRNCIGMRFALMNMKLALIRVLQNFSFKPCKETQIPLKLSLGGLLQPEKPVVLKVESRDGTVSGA
# Sequence of Cytochrome P450 2C19 (P33261 whole entry): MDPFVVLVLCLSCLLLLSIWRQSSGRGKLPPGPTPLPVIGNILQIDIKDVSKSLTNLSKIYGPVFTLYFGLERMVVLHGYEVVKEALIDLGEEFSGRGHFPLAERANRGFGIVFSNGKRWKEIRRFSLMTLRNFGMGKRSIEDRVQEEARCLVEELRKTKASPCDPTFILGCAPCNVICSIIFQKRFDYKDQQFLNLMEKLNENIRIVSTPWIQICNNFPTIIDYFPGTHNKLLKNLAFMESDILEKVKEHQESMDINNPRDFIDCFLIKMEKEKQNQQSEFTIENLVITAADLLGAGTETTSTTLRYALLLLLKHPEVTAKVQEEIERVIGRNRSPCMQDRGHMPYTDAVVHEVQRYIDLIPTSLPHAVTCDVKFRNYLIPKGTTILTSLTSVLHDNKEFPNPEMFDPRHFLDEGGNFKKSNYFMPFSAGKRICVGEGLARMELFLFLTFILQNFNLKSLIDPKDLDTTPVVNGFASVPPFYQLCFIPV
structure (smiles),measurement,setting,value
Cc1ccc(-c2nc(CN3CCCC(C(=O)N4CCOCC4)C3)c(C)o2)cc1 (stereo not given),AC50,[1],> 380 µM (inactive)
same,EC50,Protein RecA,> 380 µM (inactive)
CC(C)C(O)(C(C)C)C(C)C,AC50,Cytochrome P450 2C19,inconclusive
COC(=O)C/C=C\[C@@H](C)[C@@H](/C=N\O[C@@H](C)c1cn([C@H]2COC[C@H]2O)nn1)OC,AC50,Cytochrome P450 2C19,inconclusive
COc1cccc(Cn2c(=O)cnc3cnc(Oc4ccccc4)nc32)c1,AC50,Cytochrome P450 2C19; read-out: AC50,5.01 µM (inconclusive)
O=C(NC(=S)Nc1nc(-c2ccc(Br)cc2)cs1)c1cccnc1,AC50,Cytochrome P450 1A2,3.55 µM (inconclusive)
CN1CCN(c2ccc(NC(=O)c3ccc(C#N)cc3F)cc2Cl)CC1,AC50,[2],11.9 µM (active)
CN(C)c1ncc2nc(-c3cc(F)cc(F)c3)c(=O)n(C[C@H]3CCCO3)c2n1,AC50,Cytochrome P450 1A2,0.0794 µM (inconclusive)
COc1cccc(Nc2ncc3nc(-c4ccc(Cl)cc4)c(=O)n(CCC#N)c3n2)c1,AC50,Cytochrome P450 1A2,5.01 µM (inconclusive)
same,AC50,Cytochrome P450 3A4,2 µM (inconclusive)
COCCn1c(=O)c(-c2cc(F)cc(F)c2)nc2cnc(N3CCOCC3)nc21,AC50,Cytochrome P450 1A2,12.6 µM (inconclusive)
CC(C)C12CN3CC(C(C)C)(CN(C1)C3c1ccco1)C2=O (stereo not given),AC50,Cytochrome P450 2C19; read-out: AC50,28.2 µM (inconclusive)
COc1ccc(Oc2ncc3ncc(=O)n(C)c3n2)cc1,AC50,Cytochrome P450 2C19; read-out: AC50,31.6 µM (inconclusive)
same,AC50,Cytochrome P450 3A4,25.1 µM (inconclusive)
O=C(C1CC(=O)N(C2CCCC2)C1)N1CCC2(CC1)OCCO2 (stereo not given),AC50,Cytochrome P450 2C19; read-out: AC50,39.8 µM (inconclusive)
CC(C)(C)n1nc2c(c1NC(=O)c1ccc(S(=O)(=O)N3CCCCC3)cc1)C[S+]([O-])C2 (stereo not given),AC50,Cytochrome P450 2C19; read-out: AC50,25.1 µM (inconclusive)
same,AC50,Cytochrome P450 3A4,14.1 µM (inconclusive)
SC1=NCCC12C(S)=Nc1ccccc12 (stereo not given),AC50,[1],> 380 µM (inactive)
same,EC50,Protein RecA,> 380 µM (inactive)
COc1ccc(NC(=O)CSc2nc(O)cc(=O)n2-c2ccccc2)cc1,EC50,[3],23.1 µM (active)
same,EC50,Streptococcus,26.1 µM (active)
COc1ccc(-n2c(=O)cnc3cnc(OC)nc32)cc1,AC50,Cytochrome P450 1A2,20 µM (inconclusive)
O=c1c(-c2ccc(Cl)cc2)nc2cncnc2n1Cc1ccccc1,AC50,Cytochrome P450 2C19; read-out: AC50,25.1 µM (inconclusive)
same,AC50,Cytochrome P450 3A4,10 µM (inconclusive)
COC(=O)COc1ccsc1C(=O)OC,AC50,Cytochrome P450 1A2,28.2 µM (inconclusive)
Nc1ccccc1S(=O)(=O)NC1=NCCCCC1,AC50,[1],> 380 µM (inactive)
same,EC50,Protein RecA,> 380 µM (inactive)
C/C(CC(=O)Nc1ccccn1)=N\NC(=O)c1ccc(C)cc1,AC50,[1],20.4 µM (active)
same,EC50,Protein RecA,8.84 µM (active)
Cc1noc(C)c1C(=O)N1CCC2(CCCN(c3ccccn3)C2)CC1,AC50,Cytochrome P450 3A4,20 µM (inconclusive)
O=C(O)COc1ccc(/C=C2/SC(=S)N(Cc3ccccc3)C2=O)cc1,AC50,[1],13.7 µM (active)
same,EC50,Protein RecA,8.33 µM (active)
O=C(Cc1cc(O)n[nH]1)N/N=C/c1cccc(Cl)c1Cl,AC50,[1],4.36 µM (active) and 2.36 µM (active)
same,EC50,Protein RecA,1.51 µM (active) and 1.71 µM (active)
Cc1cc(NC(=O)C2CCCC2)n(-c2nc3ccccc3[nH]2)n1,AC50,Cytochrome P450 2C19; read-out: AC50,10 µM (inconclusive)
